Test results reported in paper PMC12378361, “Design and synthesis of photoswitchable desloratadine ligands for histamine H1 receptor photopharmacology” (RSC Medicinal Chemistry, 2025).
“And” between values parts separate entries of the source, which are not always exact repeats. Equal entries are not always repeated. Where two headings read alike, the source gives them in different places.

Legend:
[1] = UV-vis absorption spectroscopy; settings: 25 μM in HBSS buffer containing 50% DMSO; for λmax cis: n–π* band; for λmax trans: π–π* band
Method: (§1) The photochemical properties of the photoswitchable ligands (Table 1, Fig. S2–S10) were first characterized by UV-vis absorption spectroscopy.
(§2) Experimental procedures – Photochemistry
(§3) equipped with a thermostated cell holder set at 20 °C. Fits of UV−vis spectroscopy data were generated
(§4) IlluminaIon for all photochemical experiments was executed using a Suter
(§5) instruments Lambda LS with a 300 W full-spectrum lamp connected to a Suter instruments Lambda
For photochemical analyses,
(§6) IlluminaIons for pharmacological experiments were performed in cylindrical clear glass vials with a
(§7) The typi cal di stance between l i ght source and vi al or cuvete was 2 cm.

[2] = Thermal relaxation of PSScis states; settings: for Approximate t1/2 (thermal relaxation of PSScis): HBSS buffer containing 50% DMSO; for thermal half-lives (approximated dark stability), order of magnitude in words: in buffer
Method: as §1, §2, §3, §4, §5
For photochemical analyses,
as §6, §7

[3] = Photostationary state by LC-MS at the isosbestic point; settings: 10 mM in DMSO; for PSStrans (area% trans): after illumination of PSScis state with 434 ± 9 nm; for PSScis (area% cis): after illumination of trans isomer with 360 ± 20 nm
Method: as §1, §2, §3, §4, §5
For photochemical analyses,
as §6, §7

human histamine H1R = target: T1, human histamine H1R (Homo sapiens, UniProt P35367); assay: Competition radioligand binding with [3H]mepyramine on homogenates of HEK293T cells expressing HA-H1R; settings: for pKi shift: pKi PSScis – pKi trans (log unit)
T1 construct: expressed in transfected cells; host or cells: HEK293T cells, transient expression; cell homogenates
Method: For 10c and 12c, continuous illumination at 365 nm was used to counteract the short half-lives of their PSScis states, while for the other compounds PSScis states were obtained by pre-illumination with 360 nm.
Experimental methods – Pharmacology
The homogenates were stored at −20 °C. […] A]erwards, the cell homogenates were incubated with the respecIve (photo)ligands in […]
black 96 well plates (Greiner). During the incubaIon Ime, 10c and 12c were conInuousl y i l l umi nated with 365 nm (10 V, 2 mW, constant mode) light (96 LED array plates, LAD-1, LEDA-x, Bio Research Center Co., Ltd. Izumi, Japan) to account for thei r short-lived cis isomers. A]er a 4-hour incubaIon Ime, the binding reacIon was stopped using a harvester (PerkinElmer). Upon mulIple wa s h ste ps through a polyethyleneimine-coated GF/C ﬁlter plate (PerkinElmer) receptor-bound radioligand was captured by the GF/C ﬁlter plate. A]er drying the GF/C plate, the ﬁlter-bound radioligand was quanIﬁed by scinIllaIon counIng using MicroScint-O and the Wallac MicroBeta counter (PerkinElmer). […]

hH1R = settings: cited from earlier work; for pKi hH1R PSScis: PSScis state; for pKi hH1R trans: trans isomer
gpH1R = test system: gpH1R; set-up: method as in PMID 30628180; settings: cited from earlier work; for pA2 gpH1R PSScis: PSScis state; for pA2 gpH1R trans: trans isomer
[4] = Arrhenius extrapolation to 20 °C
[5] = PSScis state obtained by pre-illumination with 360 nm, mean ± SEM, n = 3, read-out: pKi PSScis (converted)
[6] = trans isomer (8: template, not photoswitchable), [3H]mepyramine, mean ± SEM, n = 3, read-out: pKi trans (converted)
[7] = continuous illumination at 365 nm during 4 h incubation at 25 °C, mean ± SEM, n = 3, read-out: pKi PSScis (converted)
[8] = trans isomer (8: template, not photoswitchable), [3H]mepyramine, mean ± SEM, n = 3

T1 sequence (P35367 whole entry): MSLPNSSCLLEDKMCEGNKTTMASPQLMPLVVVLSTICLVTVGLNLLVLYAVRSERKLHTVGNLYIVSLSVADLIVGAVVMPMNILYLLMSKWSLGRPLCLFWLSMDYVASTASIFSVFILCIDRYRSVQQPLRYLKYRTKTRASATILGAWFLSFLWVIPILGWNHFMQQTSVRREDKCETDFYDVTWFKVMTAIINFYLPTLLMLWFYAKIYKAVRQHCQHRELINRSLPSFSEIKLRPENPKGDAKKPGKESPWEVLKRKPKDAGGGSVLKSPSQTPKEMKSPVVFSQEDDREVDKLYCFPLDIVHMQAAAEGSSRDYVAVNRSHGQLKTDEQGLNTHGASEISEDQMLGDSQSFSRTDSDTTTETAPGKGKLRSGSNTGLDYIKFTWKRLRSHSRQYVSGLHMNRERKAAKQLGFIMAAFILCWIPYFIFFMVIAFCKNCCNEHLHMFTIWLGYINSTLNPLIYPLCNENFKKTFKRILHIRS

| SMILES | λmax cis [1] | λmax trans [1] | Approximate t1/2 (thermal relaxation of PSScis) [2, 4] | thermal half-lives (approximated dark stability), order of magnitude in words [2] | PSStrans (area% trans) [3] | PSScis (area% cis) [3] | Ki (human histamine H1R; [5]) | pKi shift (human histamine H1R) | Ki (human histamine H1R; [6]) | also measured |
| --- | --- | --- | --- | --- | --- | --- | --- | --- | --- | --- |
| Clc1ccc2c(c1)CCc1c(/N=N/c3ccccc3)ccnc1C2=C1CCNCC1 [10c] | 419 nm | 319 nm |  | minutes |  |  |  |  | 158 nM | Approximate t1/2 (thermal relaxation of PSScis) ([2]; 20 °C): 0.0104 days; Ki (human histamine H1R; [7]): 158 nM; pKi trans (human histamine H1R; [8]): 6.8 ± 0.0 |
| Clc1cc2c(cc1/N=N/c1ccccc1)C(=C1CCNCC1)c1ncccc1CC2 [11a] | 429 nm | 340 nm | 78 days | months | 79 area% | 97 area% | 251 nM | −0.2 | ~158 nM and 158 nM |  |
| CN1CCN(C2=Nc3ccc(Cl)cc3Oc3ccccc32)CC1 [compound 1] |  |  |  |  |  |  |  |  |  | pKi hH1R (hH1R): 8.1 ± 0.1 |
| CN1CCN(/C(=N\c2ccc(/N=N/c3ccc(S(=O)(=O)O)cc3)cc2)c2ccc(Cl)cc2)CC1 [compound 2] |  |  |  |  |  |  |  |  |  | pA2 gpH1R PSScis (gpH1R): 4.7 ± 0.1; pA2 gpH1R trans (gpH1R): 5.9 ± 0.1 |
| CN1CCN(/C(=N\c2ccc(/N=N/c3ccc([N+](=O)[O-])cc3)cc2)c2ccc(Cl)cc2)CC1 [compound 3] |  |  |  |  |  |  |  |  |  | pA2 gpH1R PSScis (gpH1R): 4.5 ± 0.1; pA2 gpH1R trans (gpH1R): 6.2 ± 0.1 |
| CN1CCC(Oc2ccccc2Cc2ccccc2)CC1 [compound 4] |  |  |  |  |  |  |  |  |  | pKi hH1R (hH1R): 8.7 ± 0.1 |
| CN1CCC(Oc2cccc(/N=N/c3ccccc3)c2)CC1 [compound 5] |  |  |  |  |  |  |  |  |  | pKi hH1R PSScis (hH1R): < 5.0; pKi hH1R trans (hH1R): < 5.0 |
| CN1CCC(Oc2ccccc2/N=N/c2ccccc2)CC1 [compound 6] |  |  |  |  |  |  |  |  |  | pKi hH1R PSScis (hH1R): 5.1; pKi hH1R trans (hH1R): 5.2 |
| CCOC(=O)N1CCC(=C2c3ccc(Cl)cc3CCc3cccnc32)CC1 [compound 7, loratadine] |  |  |  |  |  |  |  |  |  | pKi hH1R (hH1R): 6.8 ± 0.1 |
| Cc1cncc(CN2CCC(=C3c4ccc(Cl)cc4CCc4cccnc43)CC2)c1 [compound 9, rupatadine] |  |  |  |  |  |  |  |  |  | pKi hH1R (hH1R): 8.4 |

Second part, led by results:

| λmax cis [1] | λmax trans [1] | Approximate t1/2 (thermal relaxation of PSScis) [2, 4] | thermal half-lives (approximated dark stability), order of magnitude in words [2] | PSStrans (area% trans) [3] | PSScis (area% cis) [3] | Ki (human histamine H1R; [5]) | pKi shift (human histamine H1R) | Ki (human histamine H1R; [6]) | SMILES | also measured |
| --- | --- | --- | --- | --- | --- | --- | --- | --- | --- | --- |
| 429 nm | 332 nm | 38 days | months | 85 area% | 91 area% | 15.8 nM | −0.5 | 5.01 nM | Clc1ccc2c(c1)CCc1ccc(/N=N/c3ccccc3)nc1C2=C1CCNCC1 [10a] | Ki (human histamine H1R; trans isomer, read-out: Ki trans): 2 nM; fold higher H1R affinity compared to 11b (human histamine H1R; trans isomers): approximately 25 fold; light-induced affinity shift (human histamine H1R; trans vs PSScis): 3.2 fold |
| 430 nm | 335 nm | 31 days | months | 79 area% | 87 area% | 3.98 nM | −0.3 | 2 nM | Clc1ccc2c(c1)CCc1cc(/N=N/c3ccccc3)cnc1C2=C1CCNCC1 [10b] |  |
| 435 nm | 338 nm | 5 days | days | 80 area% | 91 area% | 501 nM | −0.6 | 126 nM | c1ccc(/N=N/c2ccc3c(c2)CCc2cccnc2C3=C2CCNCC2)cc1 [11b] |  |
| 419 nm |  | 211 days | months | 82 area% | 67 area% | > 1000 nM |  | > 1000 nM | Clc1ccc2c(c1/N=N/c1ccccc1)CCc1cccnc1C2=C1CCNCC1 [11c] | pKi PSScis (human histamine H1R; PSScis state obtained by pre-illumination with 360 nm, mean ± SEM, n = 3): <6.0; pKi trans (human histamine H1R; [8]): <6.0 |
| 432 nm | 327 nm | 19 days | days | 83 area% | 93 area% | 3.16 nM | −0.1 | 2.51 nM | Clc1ccc2c(c1)CCc1cccnc1C2=C1CCN(Cc2ccc(/N=N/c3ccccc3)cc2)CC1 [12a] |  |
| 423 nm | 325 nm | 198 days | months | 81 area% | 91 area% | 6.31 nM | −0.1 | 5.01 nM | Clc1ccc2c(c1)CCc1cccnc1C2=C1CCN(Cc2cccc(/N=N/c3ccccc3)c2)CC1 [12b] |  |
|  | 329 nm |  | seconds |  |  |  | −0.1 | 3.98 nM | Clc1ccc2c(c1)CCc1cccnc1C2=C1CCN(Cc2ccccc2/N=N/c2ccccc2)CC1 [12c] | Approximate t1/2 (thermal relaxation of PSScis) ([2]; 20 °C): 0.000521 days; Ki (human histamine H1R; [7]): 5.01 nM |
